Earlier results, collected in patent US8101779B2, “Enantioselective synthesis of (+) and (–)-2-[1-(2,6-dichlorophenoxy)-ethyl]-1,3-diazacyclopent-2-ene” (University of Kentucky Research Foundation, priority 2008, dated 2012).

Compound	dose at which the effect of lowering mean arterial blood pressure is apparent (effect apparent at doses as low as)	dose at which lowering of mean arterial blood pressure is not seen (effect not seen even at doses as high as)
CC(Oc1c(Cl)cccc1Cl)C1=NCCN1 (single isomer, unassigned; (+)) [(+)-lofexidine, (+) 2-[1-(2,6-dichlorophenoxy)-ethyl]1,3-diazacyclopent-2-ene]	≤ 0.561 µg/kg	–
CC(Oc1c(Cl)cccc1Cl)C1=NCCN1 (single isomer, unassigned; (-)) [(−)-lofexidine, (−)-2-[1-(2,6-dichlorophenoxy)-ethyl]-1,3-diazacyclopent-2-ene]	–	> 10 µg/kg
